Laboratory results as given in patent US11324832B2, “Tripartite modulators of endosomal G protein-coupled receptors” (Endosome Therapeutics, Inc., priority 2015, dated 2022).
Blank lines part the entries; values can stand above or below the compound they belong to. Where a SMILES comes first, the peptide text is derived from it. [ ]: non-standard residue; d: D form. The star is where a group is joined. X1 = CC(C)CCC[C@@H](C)[C@H]1CC[C@H]2[C@@H]3CC[C@H]4C[C@@H](O*)CC[C@]4(C)[C@H]3CC[C@]12C; PEG4 = NCCOCCOCCOCCOCCC(=O)O; PEG3 = NCCOCCOCCOCCC(=O)O

Key:
[1] = test system: capsaicin-evoked mechanical hyperalgesia in mice; details: mouse, in vivo
Experimental: To evaluate the importance of NK1R, clathrin and dynamin, mice (C57BL/6, male, 6-10 weeks) were injected intrathecally (L3/L4) with vehicle, NK1R antagonist SR140,333, Dy4, Dy4 inact, PS2 or PS2 inact. After 30 min, intraplantar injections of vehicle or capsaicin were made into the left hindpaw. Mechanical hyperalgesia was measured by stimulation of the plantar surface of the left and right paws with von Frey filaments, and inflammatory edema was assessed by measuring left paw thickness with calipers.
Mice were acclimatized to the experimental apparatus and environment for 1-2 h on 2 successive days before experiments. Mechanical hyperalgesia was assessed by paw withdrawal to stimulation of the plantar surface of the hind-paw with graded von Frey filaments. On the day before the study, von Frey scores were measured in triplicate to establish a baseline for each animal. To assess edema of the paw, hindpaw thickness was measured using digital calipers before and after treatments. […] Capsaicin (5 μg), Complete Freund's Adjuvant (CFA, 2 mg/ml), or vehicle (capsaicin, 20% ethanol, 10% Tween 80, 70% saline; CFA, saline) was injected subcutaneously into the plantar surface of the left hindpaw (10 μl). von Frey scores (left and right paws) and paw thickness (left paw) were measured for 30-240 min after capsaicin, and 36-40 h after injection of CFA. […]

NK1R [2] = test: NK1R endocytosis in neurons of mouse dorsal horn; type: in vivo; details: intrathecal
NK1R [3] = target: NK1R (Rattus norvegicus, UniProt P14600); test: NK1R endocytosis in rat spinal cord slices; type: cell-based; details: Dy4 30 μM; SP 1 μM, 5 min
Chain of NK1R (Rattus norvegicus, UniProt P14600) (P14600 whole entry): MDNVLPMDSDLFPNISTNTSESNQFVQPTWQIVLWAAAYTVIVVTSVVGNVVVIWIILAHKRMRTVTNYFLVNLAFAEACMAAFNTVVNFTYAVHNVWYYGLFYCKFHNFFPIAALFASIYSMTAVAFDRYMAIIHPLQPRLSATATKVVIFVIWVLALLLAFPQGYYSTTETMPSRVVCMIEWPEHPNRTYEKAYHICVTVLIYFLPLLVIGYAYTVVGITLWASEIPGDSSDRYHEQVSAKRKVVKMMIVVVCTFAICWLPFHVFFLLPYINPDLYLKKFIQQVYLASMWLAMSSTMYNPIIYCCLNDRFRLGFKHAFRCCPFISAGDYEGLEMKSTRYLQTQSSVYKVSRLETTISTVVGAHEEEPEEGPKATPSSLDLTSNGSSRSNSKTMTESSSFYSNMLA

[4] = Solubility in low DMSO for electrophysiology; type: physicochemical; details: low concentrations of DMSO required for electrophysiology
Experimental: Slices of rat spinal cord were transferred to a recording chamber and superfused with normal ACSF (2 ml·min^−1, 36° C.). […] PS2 was not soluble in the low concentrations of DMSO required for electrophysiology. Large, NKiR-positive, presumed nociceptive lamina I neurons were visually identified as described (Imlach, W. L., et al., Molecular Pharmacology, 2015, 88, 460-428). Spontaneous currents were recorded in cell-attached configuration (Multiclamp 700B, Molecular Devices, Sunnyvale, Calif.), sampled at 10 kHz, high pass filtered at 1 Hz, and capacitatively coupled action potential events were analyzed using Axograph X, V 1.4.4 (Axograph). […] Recordings were sampled at 10 kHz and filtered with a high pass filter at 1 Hz and firing rate was measured in two-minute interval bins. […] The firing time was determined as the duration of the response to last action potential. To assess synaptic transmission, whole-cell configuration recordings were made under control conditions or after exposure to Dy4 or Dy4 inact; a bipolar stimulating electrode was placed at the dorsal root entry zone, and electrically-evoked excitatory postsynaptic currents recorded as described (Imlach, W. L., et al., Molecular Pharmacology, 2015, 88, 460-428).

β2-adrenergic receptor = target: T1, β2-adrenergic receptor (Homo sapiens, UniProt P07550); test: FRET nuclear ERK biosensor, isoprenaline-induced activation in HEK293 cells; type: cell-based; details: selectivity control, endogenous receptor
T1 construct: endogenous in cells; host or cells: HEK293
T1 sequence (P07550 whole entry): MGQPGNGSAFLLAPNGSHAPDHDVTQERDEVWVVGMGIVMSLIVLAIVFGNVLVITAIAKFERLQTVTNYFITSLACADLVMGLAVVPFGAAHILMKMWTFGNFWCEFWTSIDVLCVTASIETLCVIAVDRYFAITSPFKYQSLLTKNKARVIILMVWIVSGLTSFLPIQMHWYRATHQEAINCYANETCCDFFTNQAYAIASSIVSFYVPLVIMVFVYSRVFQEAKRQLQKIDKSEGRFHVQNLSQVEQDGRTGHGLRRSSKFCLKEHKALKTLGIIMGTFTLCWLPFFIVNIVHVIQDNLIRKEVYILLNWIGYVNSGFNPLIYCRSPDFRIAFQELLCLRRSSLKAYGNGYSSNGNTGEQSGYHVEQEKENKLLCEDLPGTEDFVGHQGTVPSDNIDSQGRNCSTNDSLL
Experimental: HEK293 cells were transfected with 55 ng/well rat NK1R with N-terminal HA. 11 epitope tag (HA-NK1R) or CLR plus RAMP1 and 40 ng/well FRET biosensors. FRET was assessed 48 h after transfection, following serum restriction (0.5% FBS overnight). For experiments using clathrin or dynamin siRNA, cells were transfected with 55 ng/well rat HA-NK1R, 40 ng/well FRET biosensor and 25 nM/well scrambled, clathrin or dynamin ON-TARGETplus SMARTpool siRNA (GE Dharmacon). FRET was assessed 72 h after transfection, following serum restriction (0.5% FBS overnight). Cells were equilibrated in HBSS at 37° C. and FRET was analyzed using a GE Healthcare INCell 2000 Analyzer. For GFP/RFP emission ratio analysis, cells were sequentially excited using a FITC filter (490/20) with emission measured using dsRed (605/52) and FITC (525/36) filters, and a polychroic optimized for the FITC/dsRed filter pair (Quad4). For CFP/YFP emission ratio analysis, cells were sequentially excited using a CFP filter (430/24) with emission measured using YFP (535/30) and CFP (470/24) filters, and a polychroic optimized for the CFP/YFP filter pair (Quad3). Cells were imaged every 1 min, allowing image capture of 14 wells per minute. Baseline emission ratio images were captured for 4 min. […] Data were analyzed as described and expressed as emission ratios relative to baseline for each cell (F/F0). […]

effect on paw withdrawal responses of the uninjected right hind paw [1]: did not affect
effect on SP-stimulated NK1R endocytosis in spinal cord slices (NK1R [3]): prevented
Structure (SMILES): O=C(N/N=C/c1cc(O)c(O)cc1O)c1cc2ccccc2cc1O [Dy4]
effect on capsaicin-, formalin- and CFA-evoked NK1R endocytosis in mouse dorsal horn neurons (NK1R [2]): inhibited

solubility [4]: not soluble
Structure (SMILES): O=C1NC(=NS(=O)(=O)c2cccc3ccccc23)S/C1=C\c1ccc(Br)cc1 [PS2]

Structure (SMILES): CC(=O)N[C@@H](CC(=O)O[C@H]1CC[C@@]2(C)[C@@H](CC[C@@H]3[C@@H]2CC[C@]2(C)[C@@H]([C@H](C)CCCC(C)C)CC[C@@H]32)C1)C(=O)NCCOCCOCCOCCOCCC(=O)NCCOCCOCCOCCC(=O)NCCOCCOCCOCCOCCC(=O)N[C@H](CCCNC(=N)N)C(=O)N1CCC[C@H]1C(=O)N[C@@H](CCCCN)C(=O)N1CCC[C@H]1C(=O)N[C@@H](CCC(N)=O)C(=O)N[C@@H](CCC(N)=O)C(=O)N[C@H](Cc1c[nH]c2ccccc12)C(=O)N[C@@H](Cc1ccccc1)C(=O)N[C@H](Cc1c[nH]c2ccccc12)C(=O)N[C@@H](CC(C)C)C(=O)N[C@@H](CC(C)C)C(N)=O [Compound 1] (Ac-D(X1)[PEG4][PEG3][PEG4][dR]PKPQQ[dW]F[dW]LL-NH2)
effect on isoprenaline-induced activation of nuclear ERK (β2-adrenergic receptor): did not affect
